The text below walks through data of publication PMC5671392, “Optimization of an in vitro assay methodology for competitive binding of thyroidogenic xenobiotics with thyroxine on human transthyretin and albumin” (MethodsX, 2017).

The pIC50 is the IC50 on a negative log10 scale, so that one unit is a factor of ten. For orientation: pKi means −log10 of the Ki, conventionally taken in molar units.

pIC50, pKi: −log10 of the molar value.

The target of one assay is human albumin (ALB) (Homo sapiens, UniProt P02768). The assay is described as follows: Competitive T4 radio-ligand (125I-T4) binding assay with human albumin. The following applies: 600 nM ALB.
Chain of human albumin (ALB) (P02768 25-609): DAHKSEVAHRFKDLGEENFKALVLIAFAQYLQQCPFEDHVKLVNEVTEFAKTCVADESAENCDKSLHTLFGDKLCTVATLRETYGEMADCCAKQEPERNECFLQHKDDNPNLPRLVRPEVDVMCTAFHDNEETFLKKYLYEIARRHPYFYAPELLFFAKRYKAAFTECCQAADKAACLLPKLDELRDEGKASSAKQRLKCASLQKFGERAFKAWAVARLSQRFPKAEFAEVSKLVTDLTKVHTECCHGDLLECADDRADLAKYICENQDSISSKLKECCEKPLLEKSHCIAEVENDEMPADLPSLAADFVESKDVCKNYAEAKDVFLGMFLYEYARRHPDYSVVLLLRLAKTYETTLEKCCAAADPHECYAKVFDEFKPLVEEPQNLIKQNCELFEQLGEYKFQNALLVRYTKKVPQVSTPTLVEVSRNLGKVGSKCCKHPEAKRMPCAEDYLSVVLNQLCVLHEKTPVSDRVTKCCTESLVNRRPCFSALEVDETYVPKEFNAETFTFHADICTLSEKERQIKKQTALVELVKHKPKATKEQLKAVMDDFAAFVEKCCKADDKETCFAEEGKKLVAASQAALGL
The subject of assay [1] is human TTR isolated from human plasma. Also on record: method as in PMID 19033396. As to conditions: in vitro; cited from earlier work.
Assay [2] concerns the target human transthyretin (TTR) (Homo sapiens, UniProt P02766). In words: Competitive T4 radio-ligand (125I-T4) binding assay with human transthyretin. The following applies: 30 nM TTR.
Source text: (§1) The entire assay takes two days to complete for each batch of samples to be processed. The Day 1 procedure is described as follows. […] First, thaw the working solutions of these components to room temperature if they have been placed in frozen storage. For the protein working solutions, prepare the day they are to be used based on the number of assay aliquots required (one vial is sufficient for approximately 45 assay samples). […] Label a series of polypropylene test tubes corresponding to the samples being prepared. This should include triplicate samples for each ligand competitor concentration.
(§2) The following steps describe the order of pipetting components for assay incubation mixtures. • 1. […] Continue for each increasing concentration of the ligand. Control samples receive 5 μL of DMSO in place of a competitor ligand. • 2. […] Centrifuge the samples at 300 × g for 30 s to force the solution to the bottom of the tube. • 4. Measure the initial radioactivity on the gamma counter. […]
(§3) Label a series of clean test tubes corresponding to the samples prepared on Day 1 and repeat these labels on Bio-Spin® columns. Work on one replicate set at a time, leaving the remaining columns and incubation mixtures in the fridge until ready for processing. […] Measure the radioactivity of the eluate fraction, as well as the residual radioactivity in the incubation tubes containing the discarded pipette tips. […]

Source text for human albumin (ALB): as §1, §2, §3

In the case of `Oc1cc(Br)c(Oc2ccc(Br)cc2Br)cc1Br` [4-OH-BDE-49, 4′-hydroxy-2,2′,4,5′-tetrabromodiphenyl ether], the pIC50 was 8.94 on human albumin (ALB) (read-out: IC50, T4-ALB competitive binding, 55 nM T4 + 125I-T4, overnight at 4 °C, Tris-EDTA pH 8.0, 6 replicates) and 7.91 in assay [2] (read-out: IC50, T4-TTR competitive binding, 55 nM T4 + 125I-T4, overnight at 4 °C, Tris-EDTA pH 8.0, 6 replicates). Also, the pKi on human albumin (ALB) (read-out: Ki, T4-ALB competitive binding, calculated from IC50 after Cheng and Prusoff, unit inferred) was 8.97; in assay [2] (read-out: Ki, T4-TTR competitive binding, calculated from IC50 after Cheng and Prusoff, unit inferred), 7.91. Besides, the “Binding affinity for human TTR compared with T4” value in assay [1] was “higher affinity than T4”.
